The values that follow come from patent US4395405A, “Alkyl-ketohexopyranoside derivatives and method of use” (Hisamitsu Pharmaceutical Co., Inc., priority 1979, dated 1983).

Data set [1] in a line: Acute poisoning test on rats. Conditions: rat, in vivo, three weeks. As for the experimental part: (§1) Each of the test compounds was suspended in a physiological solution of sodium chloride containing 0.5% of tragacanth gum to obtain a test suspension. The test suspensions so obtained were administered to rats and mice in various ways. LD50 was calculated from test animals which died in three weeks after the start of the test.

Data set [2] relates to IgG and IgM. As to the kind of experiment: Amount of antibodies formed in rats, PHA (phytohemaglutinin) reaction. It is filed as in vivo, rats of wistar strain. Conditions: hypodermic administration, serum 8 days after sensitization. As for the experimental part: (§2) Effects on the formation of homocytotropic antibodies in rats
(§3) An experiment was carried out in accordance with the Tada and Okumura's method (J. Immunol., Vol. 106, p 1002, 1971).
(§4) Groups each consisting of 8-9 rats of wistar strain were used in this experiment.
(§5) As shown in Tables 2-5, to the four legs of the rats were injected 1 mg of dinitrophenylated extract of ascaris suum (DNP-As) as protein and 10^10 cells of vaccinum pertussis (B. Pertussis) for sensitization, after which the compounds of this invention were administered to the injected rats for 5 days. Eight to nine days after the sensitization, bloodletting was effected on these rats to collect their serum for estimating the amount of antibodies formed using passive cutaneous anaphylaxis (PCA) reactions and phytohemaglutinin (PHA) reactions.
(2) Estimation of the amount of antibodies by PHA reaction:
The collected serum was diluted in various concentrations and incubated with sheep red blood cells coupled with DNP-As using bis-diazoated benzydine to determine the dilution of the serum which induced the minimum hemaglutination. […]

For data set [3], the system named is IgG and IgM. As to the kind of experiment: Amount of antibodies formed in mice, PHA reaction. The format is in vivo, mice (BALB/c strain), female. Particulars: 100 mg/Kg/day for 5 days. As for the experimental part: The collected serum was diluted in various concentrations and incubated with sheep red blood cells coupled with DNP-As using bis-diazoated benzydine to determine the dilution of the serum which induced the minimum hemaglutination.
(§6) Effects on the formation of homocytotropic antibodies in mice
(§7) Groups each consisting of 5 female mice (BALB/c strain) were used in this experiment. The mice were sensitized with 10 μg of DNP-As as protein and 3 mg of Al(OH)3, after which the test compound was administered to the sensitized mice for 5 days (at a dose of 100 mg/Kg/day). After the sensitization, a sample of serum was collected from the mice and treated in the same manner as in Experiment 1 to determine the amount of antibodies formed. […]

Data set [4] concerns IgE antibodies. The data set is described as follows: Formation of homocytotropic antibodies in mice, PCA reaction. The format is in vivo, mice (BALB/c strain), female. Conditions: 100 mg/Kg/day for 5 days. As for the experimental part: The collected serum was diluted in various concentrations and intradermally injected to other rats. Forty-eight (48) hours after the injection, 2 mg of DNP-As as protein and 0.5 ml of a 1% Evans Blue were intravenously injected into these rats to determine the dilution of the serum which induced the minimum extravasted dye. It should be noted that the symbols "*" and "**" in the following Tables indicate significant differences at risks of 5% and 1%, respectively.
as §6, §7

Data set [5] can be described thus: Acute poisoning test on mice. Conditions: mouse, in vivo, three weeks. As for the experimental part: as §1
The subject of data set [6] is IgE antibodies. As to the kind of experiment: Formation of homocytotropic antibodies in rats, PCA (passive cutaneous anaphylaxis) reaction. It is filed as in vivo, rats of wistar strain. Particulars: hypodermic administration, serum 8 days after sensitization. As for the experimental part:
as §2, §3, §4, §5
(1) Estimation of the amount of antibodies by PCA reaction:
The collected serum was diluted in various concentrations and intradermally injected to other rats. Forty-eight (48) hours after the injection, 2 mg of DNP-As as protein and 0.5 ml of a 1% Evans Blue were intravenously injected into these rats to determine the dilution of the serum which induced the minimum extravasted dye. It should be noted that the symbols "*" and "**" in the following Tables indicate significant differences at risks of 5% and 1%, respectively. […]

Setting [7] is: Table 11, hypodermic, serum 9 days after, control 380.2 (269.2-537.0).
Setting [8] is: Table 11, hypodermic, serum 10 days after, control 109.7 (95.5-125.9).
Setting [9] is: Table 11, hypodermic, serum 37 days after, control 1071.5 (871.0-1318.3).
[10] abbreviates: Table 7, oral, serum 10 days after sensitization, control 537.0 (436.5-660.7).
Where [11] appears, read: Table 8, hypodermic, serum 9 days after, control 708.0 (575.4-871.0).
Where [12] appears, read: Table 8, hypodermic, serum 10 days after, control 537.0 (380.2-758.6).
[13] abbreviates: Table 8, hypodermic, serum 37 days after, control 2818.4 (1862.1-4265.8).

With `CCCOC1(CO)OCC(O)C(O)C1O` [Compound No. 7, n-propyl-α-L-sorbopyranoside], the LD50 at 504 h in data set [1] (ip, abdominally, male) was over 5000 mg/kg; in data set [1] (iv, intravenously, male), over 2000 mg/kg; in data set [1] (po, orally, male) it was over 5000 mg/kg; in data set [1] (sc, hypodermically, male), over 5000 mg/kg; in data set [5] (ip, abdominally, male) it was over 1000 mg/kg; in data set [5] (iv, intravenously, male), over 2000 mg/kg. The LD50 at 504 h in data set [5] (po, orally, male) is over 5000 mg/kg; in data set [5] (sc, hypodermically, male), over 5000 mg/kg. For the same compound, the “PHA of rat: dilution of the serum which induced the minimum hemaglutination” value in data set [2] (Table 5 left half, control 1318.3 (933.3-1862.1)) came to 5248.1. The “PHA of mice (serum dilution)” value in data set [3] (setting [7]) is recorded as 309.0 (251.2-380.2); in data set [3] (setting [8]) it was 166.0 (134.9-204.2); in data set [3] (setting [9]) it was 1000 (758.6-1318.3). For the same compound, the “PCA of mice (serum dilution)” value in data set [4] (setting [10]) turned out to be 218.8; in data set [4] (setting [11]), 660.7; in data set [4] (setting [12]), 407.4; in data set [4] (setting [13]) it was 1995.3. The “PCA of rat: dilution of the serum which induced the minimum extravasted dye” value in data set [6] (Table 3 left half, control 144.5 (117.5-177.8)) turned out to be 67.6.
Regarding `CC(C)COC1(CO)OCC(O)C(O)C1O` [Compound No. 10, isobutyl-α-L-sorbopyranoside], the LD50 at 504 h in data set [1] (ip, abdominally, female) was about 2000 mg/kg; in data set [1] (ip, abdominally, male), about 2000 mg/kg; in data set [1] (iv, intravenously, female), 1000 to 2000 mg/kg; in data set [1] (iv, intravenously, male) it was 1000 to 2000 mg/kg; in data set [1] (po, orally, female) it was over 5000 mg/kg; in data set [1] (po, orally, male), over 5000 mg/kg. For the same compound, the 50% lethal dose (LD50) at 504 h is over 5000 mg/kg in data set [1] (sc, hypodermically, female); over 5000 mg/kg in data set [1] (sc, hypodermically, male); 500 to 1000 mg/kg in data set [5] (ip, abdominally, female); 500 to 1000 mg/kg in data set [5] (ip, abdominally, male); 1000 to 2000 mg/kg in data set [5] (iv, intravenously, female); 1000 to 2000 mg/kg in data set [5] (iv, intravenously, male). In addition, the 50% lethal dose (LD50) at 504 h in data set [5] (po, orally, female) is 2000 to 5000 mg/kg; in data set [5] (po, orally, male), 2000 to 5000 mg/kg; in data set [5] (sc, hypodermically, female) it was about 2000 mg/kg; in data set [5] (sc, hypodermically, male) it was about 2000 mg/kg. In addition, the “PHA of rat: dilution of the serum which induced the minimum hemaglutination” value in data set [2] (Table 5 right half, control 3235.9 (2454.7-4265.8)) was 5248.1 (3715.4-7413.1). Further, the “PHA of mice (serum dilution)” value is listed as 109.7 in data set [3] (Table 10, oral, serum 10 days after, control 125.9 (95.5-166.0)); 154.9 (125.9-190.6) in data set [3] (setting [7]); 102.3 (83.2-125.9) in data set [3] (setting [8]); 1148.2 (933.3-1412.5) in data set [3] (setting [9]). The “PCA of mice (serum dilution)” value is listed as 501.2 in data set [4] (setting [10]), 537.0 in data set [4] (setting [11]), 708.0 in data set [4] (setting [12]) and 1513.6 in data set [4] (setting [13]). In addition, in data set [6] (Table 3 right half, control 269.2 (218.8-331.1)), the “PCA of rat: dilution of the serum which induced the minimum extravasted dye” value is on record as 177.8 (134.9-234.4).
